# Laboratory results taken from PubChem BioAssay AID743341 (Broad Institute, 2014).
# Records with an inconclusive call do not appear. Active and inactive are the calls of the source.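 The calls were made as follows: active = fitted curve of myotube length rescue reaches 40% at or below the top valid tested dose in every replicate test; inconclusive = replicate tests give mixed outcomes; inactive = every replicate test inactive, including effects in the opposite direction.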
# Assay: suppression of statin-driven myotube degradation – imaging, C2C12 myotubes, MHC immunostaining, dry powder, orthogonal assay for statin myotoxicity suppressor project, confirmation (AID 743341)
# Conditions: C2C12 myotubes + simvastatin, MHC imaging tube length, 48 h; at 18 µM (top of the series)
row,SMILES,rescue of myotube length
1,C[C@H]1CN([C@@H](C)CO)C(=O)Cc2cc(NC(=O)CCCCCC(=O)Nc3ccccc3N)ccc2O[C@H]1CN(C)Cc1ccccc1,21.7% (inactive)
2,C[C@H](CO)N1C[C@H](C)[C@H](CN(C)Cc2ccc3c(c2)OCO3)Oc2ccc(NC(=O)CCCCCC(=O)Nc3ccccc3N)cc2CC1=O,19.7% (inactive)

# Same assay, conditions: C2C12 myotubes + simvastatin, MHC imaging tube length, 48 h; at 19.5 µM (top of the series)
row,SMILES,rescue of myotube length
1,COc1ccc(CN(C)C[C@H]2Oc3ccc(NS(=O)(=O)c4ccc(Cl)cc4)cc3CC(=O)N([C@@H](C)CO)C[C@@H]2C)cc1,-19% (inactive)
2,CCCNC(=O)N1[C@H](CO)[C@H](c2ccccc2)[C@@H]1C#N,1.19% (inactive)
3,N#C[C@@H]1[C@@H](c2ccccc2-c2ccc(F)cc2)[C@H](CO)N1C(=O)NC1CCCC1,15.4% (inactive)
4,C[C@H](CO)N1C[C@H](C)[C@@H](CN(C)Cc2ccc(Cl)c(Cl)c2)Oc2ccc(NC(=O)C3CC3)cc2CC1=O,-6.48% (inactive)
5,Cc1ccc(S(=O)(=O)N(C)C[C@@H]2Oc3ccc(NS(=O)(=O)c4ccc(Cl)cc4)cc3C(=O)N([C@H](C)CO)C[C@@H]2C)cc1,3.15% (inactive)
6,N#C[C@@H]1[C@@H](c2ccc(-c3cccc(F)c3)cc2)[C@H](CO)N1C(=O)c1cccnc1,12.6% (inactive)
7,C[C@@H]1CN([C@H](C)CO)C(=O)Cc2cc(NS(=O)(=O)c3ccc(Cl)cc3)ccc2O[C@H]1CN(C)Cc1ccccc1,0.917% (inactive)
8,N#C[C@H]1[C@H](c2ccc(C#CCC3CCCC3)cc2)[C@@H](CO)N1C(=O)CN1CCOCC1,14.6% (inactive)
9,CN1C(=O)c2cc(NC(=O)c3ccc(F)c(F)c3)ccc2OC[C@H]2O[C@@H](CC(=O)Nc3ccc4c(c3)COC4)CC[C@@H]21,12.6% (inactive)
10,Cc1ccc(S(=O)(=O)Nc2ccc3c(c2)CC(=O)N([C@@H](C)CO)C[C@@H](C)[C@H](CN(C)Cc2ccc(-c4ccccc4)cc2)O3)cc1,-2.54% (inactive)
11,COc1ccc(-c2ccc([C@@H]3[C@@H](C#N)N(C(=O)NC4CCCC4)[C@H]3CO)cc2)cc1,7.03% (inactive)
12,COc1ccc(C#Cc2cnc3c(c2)C(=O)N([C@H](C)CO)C[C@H](C)[C@@H](CN(C)C(=O)Nc2cccc(OC)c2)O3)cc1,30.4% (inactive)
13,N#C[C@@H]1[C@@H](c2ccc(C3=CCCCC3)cc2)[C@H](CO)N1C(=O)NC1CCCC1,9.82% (inactive)
14,COc1ccc(S(=O)(=O)Nc2ccc3c(c2)CC(=O)N([C@H](C)CO)C[C@@H](C)[C@H](CN(C)CC2CCCCC2)O3)cc1,-8.93% (inactive)
15,COc1ccc(C#Cc2cnc3c(c2)C(=O)N([C@H](C)CO)C[C@H](C)[C@H](CN(C)Cc2ccccc2)O3)cc1OC,-10.4% (inactive)

# Same assay, conditions: C2C12 myotubes + simvastatin, MHC imaging tube length, 48 h; at 21 µM (top of the series)
row,SMILES,rescue of myotube length
1,N#C[C@H]1N[C@@H](CO)[C@@H]1c1ccc(-c2cccc(F)c2)cc1,8.43% (inactive)
2,C[C@@H]1CN([C@@H](C)CO)C(=O)Cc2cc(NC(=O)CCCCCC(=O)Nc3ccccc3N)ccc2O[C@@H]1CN(C)Cc1ccc(Oc2ccccc2)cc1,-5.63% (inactive)
3,C[C@@H]1CN([C@@H](C)CO)C(=O)c2cc(NC(=O)Nc3cccc4ccccc34)ccc2O[C@@H]1CN(C)Cc1ccc(C(=O)Nc2ccccc2N)cc1,20.8% (inactive)
4,C[C@H]1CN([C@@H](C)CO)C(=O)Cc2cc(NS(=O)(=O)c3ccc(Cl)cc3)ccc2O[C@@H]1CN(C)CC1CCCCC1,-32.7% (inactive)
5,N#C[C@@H]1[C@@H](c2ccc(C#CC3CCCC3)cc2)[C@H](CO)N1S(=O)(=O)c1ccccc1,4.55% (inactive)
6,CCS(=O)(=O)N1[C@H](C#N)[C@@H](c2ccc(-c3cccc(F)c3)cc2)[C@@H]1CO,16.6% (inactive)
7,N#C[C@@H]1[C@@H](c2ccccc2)[C@H](CO)N1S(=O)(=O)c1ccc(-c2ccccc2)cc1,13.9% (inactive)
8,COCC(=O)N1[C@H](C#N)[C@@H](c2ccc(-c3cccc(F)c3)cc2)[C@@H]1CO,4.32% (inactive)
9,CCCNC(=O)N1[C@@H](C#N)[C@@H](c2ccc(-c3ccccc3F)cc2)[C@@H]1CO,-2.07% (inactive)
